Bridge positions count the residues as written; N and C are the ends. Square brackets hold non-standard residues; d marks the D form. Peptide text beside a SMILES is read from it. * marks the point of attachment. hPhe(3,5-F2-4-CF3) = N[C@@H](CCc1cc(F)c(C(F)(F)F)c(F)c1)C(=O)O; hPhe(3-Cl-4-CF3) = N[C@@H](CCc1ccc(C(F)(F)F)c(Cl)c1)C(=O)O; hPhe(3-F,4-CF3) = N[C@@H](CCc1ccc(C(F)(F)F)c(F)c1)C(=O)O; NMePhe(4-CF3) = CN[C@@H](Cc1ccc(C(F)(F)F)cc1)C(=O)O; Pro(trans-4-Ph) = O=C(O)[C@@H]1C[C@@H](c2ccccc2)CN1; 3Oxa8azabicyclo(3.2.1)octane = C1CC2COCC1N2*; NEtPhe(4-Me) = CCN[C@@H](Cc1ccc(C)cc1)C(=O)O; NMeAbu(4,4,4-F3) = CN[C@@H](CC(F)(F)F)C(=O)O; hPhe(4-Cl) = N[C@@H](CCc1ccc(Cl)cc1)C(=O)O; NMeAla(cPent) = CN[C@@H](CC1CCCC1)C(=O)O; NMeGly(cPent) = CN[C@H](C(=O)O)C1CCCC1; Pro(4,4-F2) = O=C(O)[C@@H]1CC(F)(F)CN1; NMeCha = CN[C@@H](CC1CCCCC1)C(=O)O; cisHyp = O=C(O)[C@@H]1C[C@H](O)CN1; Hyp = O=C(O)[C@@H]1C[C@@H](O)CN1; NEtLeu = CCN[C@@H](CC(C)C)C(=O)O; NMeChg = CN[C@H](C(=O)O)C1CCCCC1; NMeI = CC[C@H](C)[C@H](NC)C(=O)O; N(CH2CH2)2CF2 = FC1(F)CCN(*)CC1; NMeD = CN[C@@H](CC(=O)O)C(=O)O; NMeL = CN[C@@H](CC(C)C)C(=O)O; NMeV = CN[C@H](C(=O)O)C(C)C; d(β3hA) = C[C@@H](N)CC(=O)O; Azetidin(1-yl) = C1CN(*)C1; NMeS = CN[C@@H](CO)C(=O)O; Morpholide = C1CN(*)CCO1; NMeA = CN[C@@H](C)C(=O)O; Piperidide = C1CCN(*)CC1; Pyrrolidide = C1CCN(*)C1; dNMeA = CN[C@H](C)C(=O)O; Ac5c = NC1(C(=O)O)CCCC1; Aze = O=C(O)[C@@H]1CCN1; Sar = CNCC(=O)O; Propyl = CCC*
Tests used:
[1] = target: protein-protein interaction between Kras and SOS1 (biotin-tagged human Kras loaded with GDP, His-tagged human SOS1) (Homo sapiens (Human), UniProt P01116, G12D); test: Protein-protein interaction inhibition between Kras and SOS1 (KrasG12D-SOS PPI) using AlphaScreen; type: biochemical; conditions: AlphaScreen; biotin-tagged human Kras loaded with GDP, His-tagged human SOS1; read-out: KRAS G12D-SOS PPI IC50;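 also: kras produced in E. coli, Ni-coupled donor beads and streptavidin acceptor beads, excitation 680 nm with emission detected at 520–620 nm via singlet oxygen transfer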
[2] = tested on: Human pancreatic cancer cell line AsPC-1 (G12D mutation Kras); test: AsPC-1 cell growth inhibition (AsPC-1 CGI); type: cell-based; conditions: read-out: AsPC-1 cell growth inhibition, 50% growth inhibitory concentration (IC50 value); 96 hours, CellTiter-Glo, values classified in ranges

CC[C@H](C)[C@@H]1NC(=O)[C@H](CC(C)C)N(C)C(=O)C[C@@H](C(=O)N2CCC2)N(C)C(=O)[C@H](C2CCCC2)N(C)C(=O)C2(CCCC2)NC(=O)[C@@H]2CC(F)(F)CN2C(=O)[C@H](CCc2ccc(C(F)(F)F)c(Cl)c2)NC(=O)CN(C)C(=O)[C@H](CC2CCCCC2)N(C)C(=O)[C@@H]2CCN2C(=O)[C@H](C)N(C)C1=O [Compound 1283] ([NMeL]I[NMeA][Aze][NMeCha][Sar][hPhe(3-Cl-4-CF3)][Pro(4,4-F2)][Ac5c][NMeGly(cPent)][NMeD]-{Azetidin(1-yl)}; lactam N-11)
IC50 [1]: 0.63 nM
IC50 [2]: ≤ 20 nM

CC[C@H](C)[C@@H]1NC(=O)[C@H](C)N(C)C(=O)C[C@@H](C(=O)N2CCCCC2)N(C)C(=O)[C@H](C(C)C)N(C)C(=O)C2(CCCC2)NC(=O)[C@@H]2CCCN2C(=O)[C@H](CCc2ccc(C(F)(F)F)c(Cl)c2)NC(=O)CN(C)C(=O)[C@H](CC2CCCCC2)N(C)C(=O)[C@@H]2CCN2C(=O)[C@H](CC2CCCC2)N(C)C1=O [Compound 1566] ([NMeA]I[NMeAla(cPent)][Aze][NMeCha][Sar][hPhe(3-Cl-4-CF3)]P[Ac5c][NMeV][NMeD]-Piperidide; lactam N-11)
IC50 [1]: 20 nM
IC50 [2]: > 500 nM

CCO[C@@H]1C[C@H]2C(=O)NC3(CCCC3)C(=O)N(C)[C@@H](C3CCCCC3)C(=O)N(C)[C@H](C(=O)N3CCCC3)CC(=O)N(C)[C@@H](CC(F)(F)F)C(=O)N[C@@H]([C@@H](C)CC)C(=O)N(C)CC(=O)N(C)CC(=O)N(C)[C@@H](CC3CCCCC3)C(=O)N(C)CC(=O)N[C@@H](CCc3cc(F)c(C(F)(F)F)c(F)c3)C(=O)N2C1 [Compound 1149] ([NMeAbu(4,4,4-F3)]I[Sar][Sar][NMeCha][Sar][hPhe(3,5-F2-4-CF3)][Hyp](Et)[Ac5c][NMeChg][NMeD]-Pyrrolidide; lactam N-11)
IC50 [1]: 0.62 nM
IC50 [2]: ≤ 20 nM

CCO[C@@H]1C[C@H]2C(=O)NC3(CCCC3)C(=O)N(C)[C@@H](C3CCCCC3)C(=O)N(C)[C@H](C(=O)N3C4CCC3COC4)CC(=O)N(C)[C@@H](CC(C)C)C(=O)N[C@@H]([C@@H](C)CC)C(=O)N(C)CC(=O)N(C)CC(=O)N(C)[C@@H](CC3CCCCC3)C(=O)N(C)CC(=O)N[C@@H](CCc3cc(F)c(C(F)(F)F)c(F)c3)C(=O)N2C1 [Compound 1341] ([NMeL]I[Sar][Sar][NMeCha][Sar][hPhe(3,5-F2-4-CF3)][Hyp](Et)[Ac5c][NMeChg][NMeD]-{3Oxa8azabicyclo(3.2.1)octane}; lactam N-11)
IC50 [1]: 0.82 nM
IC50 [2]: ≤ 20 nM

CC[C@H](C)[C@@H]1NC(=O)[C@H](C)N(C)C(=O)C[C@@H](C(=O)N2CCOCC2)N(C)C(=O)[C@H](C(C)C)N(C)C(=O)C2(CCCC2)NC(=O)[C@@H]2CCCN2C(=O)[C@H](CCc2ccc(C(F)(F)F)c(Cl)c2)NC(=O)[C@@H](C)N(C)C(=O)[C@H](CC2CCCCC2)N(C)C(=O)[C@@H]2CCN2C(=O)[C@H](C)N(C)C1=O [Compound 1664] ([NMeA]I[NMeA][Aze][NMeCha][dNMeA][hPhe(3-Cl-4-CF3)]P[Ac5c][NMeV][NMeD]-Morpholide; lactam N-11)
IC50 [1]: 8.8 nM
IC50 [2]: > 500 nM

CC[C@H](C)[C@@H]1NC(=O)[C@H](CC(C)C)N(C)C(=O)C[C@@H](C(=O)N2CCOCC2)N(C)C(=O)[C@H]([C@@H](C)CC)N(C)C(=O)C2(CCCC2)NC(=O)[C@@H]2CCCN2C(=O)[C@H](CCc2ccc(C(F)(F)F)c(Cl)c2)NC(=O)CN(C)C(=O)[C@H](Cc2ccc(C(F)(F)F)cc2)N(C)C(=O)[C@@H]2CCN2C(=O)[C@H](C)N(C)C1=O [Compound 276] ([NMeL]I[NMeA][Aze][NMePhe(4-CF3)][Sar][hPhe(3-Cl-4-CF3)]P[Ac5c][NMeI][NMeD]-Morpholide; lactam N-11)
IC50 [1]: 0.76 nM
IC50 [2]: ≤ 20 nM

CC[C@H](C)[C@@H]1NC(=O)[C@H](CC(C)C)N(C)C(=O)C[C@@H](C(=O)N(C)C)N(C)C(=O)[C@H](C2CCCC2)N(C)C(=O)[C@H](C)NC(=O)[C@@H]2CCCN2C(=O)[C@H](CCc2ccc(C(F)(F)F)c(Cl)c2)NC(=O)CN(C)C(=O)[C@H](CC2CCCCC2)N(C)C(=O)[C@@H]2CCN2C(=O)[C@H](C)N(C)C1=O [Compound 314] ([NMeL]I[NMeA][Aze][NMeCha][Sar][hPhe(3-Cl-4-CF3)]PA[NMeGly(cPent)][NMeD]-NMe2; lactam N-11)
IC50 [1]: 2.6 nM
IC50 [2]: > 500 nM

CC[C@H](C)[C@@H]1NC(=O)[C@H](CC(C)C)N(C)C(=O)C[C@@H](C(=O)N2CCCCC2)N(C)C(=O)[C@H](C2CCCCC2)N(C)C(=O)C2(CCCC2)NC(=O)[C@@H]2C[C@@H](c3ccccc3)CN2C(=O)[C@H](CCc2ccc(C(F)(F)F)c(Cl)c2)NC(=O)CN(C)C(=O)[C@H](CC2CCCCC2)N(C)C(=O)[C@@H]2CCCN2C(=O)CN(C)C1=O [Compound 255] ([NMeL]I[Sar]P[NMeCha][Sar][hPhe(3-Cl-4-CF3)][Pro(trans-4-Ph)][Ac5c][NMeChg][NMeD]-Piperidide; lactam N-11)
IC50 [1]: 7.8 nM
IC50 [2]: > 500 nM

CC[C@H](C)[C@@H]1NC(=O)[C@H](C)N(C)C(=O)C[C@@H](C)NC(=O)[C@H](C2CCCC2)N(C)C(=O)C2(CCCC2)NC(=O)[C@@H]2CCCN2C(=O)[C@H](CCc2ccc(C(F)(F)F)c(Cl)c2)NC(=O)[C@@H](C)N(C)C(=O)[C@H](CC2CCCCC2)N(C)C(=O)[C@@H]2CCN2C(=O)CN(C)C1=O [Compound 1539] (cyclo([Ac5c][NMeGly(cPent)][d(β3hA)][NMeA]I[Sar][Aze][NMeCha][dNMeA][hPhe(3-Cl-4-CF3)]P))
IC50 [1]: 54 nM
IC50 [2]: > 500 nM

CC[C@H](C)[C@@H]1NC(=O)[C@H](CC(C)C)N(CC)C(=O)C[C@@H](C(=O)N2CCOCC2)N(C)C(=O)[C@H](C2CCCC2)N(C)C(=O)C2(CCCC2)NC(=O)[C@@H]2CCCN2C(=O)[C@H](CCc2ccc(C(F)(F)F)c(Cl)c2)NC(=O)CN(C)C(=O)[C@H](CC2CCCCC2)N(C)C(=O)[C@@H]2CCN2C(=O)[C@H](C)N(C)C1=O [Compound 1220] ([NEtLeu]I[NMeA][Aze][NMeCha][Sar][hPhe(3-Cl-4-CF3)]P[Ac5c][NMeGly(cPent)][NMeD]-Morpholide; lactam N-11)
IC50 [1]: 0.64 nM
IC50 [2]: ≤ 20 nM

CCCOC[C@H]1C(=O)N(C)CC(=O)N[C@@H](CCc2ccc(C(F)(F)F)c(Cl)c2)C(=O)N2CCC[C@H]2C(=O)NC2(CCCC2)C(=O)N(C)[C@@H]([C@@H](C)CC)C(=O)N(C)[C@H](C(=O)N2CCCC2)CC(=O)N(C)[C@@H](CC(C)C)C(=O)N[C@@H]([C@@H](C)CC)C(=O)N(C)[C@@H](C)C(=O)N2CC[C@H]2C(=O)N1C [Compound 567] ([NMeL]I[NMeA][Aze][NMeS](Propyl)[Sar][hPhe(3-Cl-4-CF3)]P[Ac5c][NMeI][NMeD]-Pyrrolidide; lactam N-11)
IC50 [1]: 1.5 nM
IC50 [2]: ≤ 20 nM

CC[C@H](C)[C@@H]1NC(=O)[C@H](CC(C)C)N(C)C(=O)C[C@@H](C(=O)N2CCCCC2)N(C)C(=O)[C@H](CC(C)C)N(C)C(=O)C2(CCCC2)NC(=O)[C@@H]2C[C@@H](O)CN2C(=O)[C@H](CCc2ccc(C(F)(F)F)c(F)c2)NC(=O)CN(C)C(=O)[C@H](CC2CCCCC2)N(C)C(=O)CN(C)C(=O)CN(C)C1=O [Compound 875, (3S,9S,18S,21S,25S,28S,34S,36R)-9-(cyclohexylmethyl)-3-[2-[3-fluoro-4-(trifluoromethyl)phenyl]ethyl]-36-hydroxy-21,28-diisobutyl-7,10,13,16,22,26,29-heptamethyl-18-[(1S)-1-methylpropyl]-25-(piperidine-1-carbonyl)spiro[1,4,7,10,13,16,19,22,26,29,32-undecazabicyclo[32.3.0]heptatriacontane-31,1′-cyclopentane]-2,5,8,11,14,17,20,23,27,30,33-undecone] ([NMeL]I[Sar][Sar][NMeCha][Sar][hPhe(3-F,4-CF3)][Hyp][Ac5c][NMeL][NMeD]-Piperidide; lactam N-11)
IC50 [1]: 3.1 nM
IC50 [2]: > 500 nM

CC[C@H](C)[C@@H]1NC(=O)[C@H](CC(C)C)N(C)C(=O)C[C@@H](C(=O)N2CCCC2)N(C)C(=O)[C@H]([C@@H](C)CC)N(C)C(=O)C2(CCCC2)NC(=O)[C@@H]2CCCN2C(=O)[C@H](CCc2ccc(C(F)(F)F)c(Cl)c2)NC(=O)CN(C)C(=O)[C@H](Cc2ccc(C)cc2)N(CC)C(=O)[C@@H]2CCN2C(=O)[C@H](C)N(C)C1=O [Compound 1325] ([NMeL]I[NMeA][Aze][NEtPhe(4-Me)][Sar][hPhe(3-Cl-4-CF3)]P[Ac5c][NMeI][NMeD]-Pyrrolidide; lactam N-11)
IC50 [1]: 0.96 nM
IC50 [2]: ≤ 20 nM

CC[C@H](C)[C@@H]1NC(=O)[C@H](CC(C)C)N(C)C(=O)C[C@@H](C)NC(=O)[C@H](CC(C)C)N(C)C(=O)C2(CCCC2)NC(=O)[C@@H]2C[C@H](O)CN2C(=O)[C@H](CCc2ccc(C(F)(F)F)c(F)c2)NC(=O)CN(C)C(=O)[C@H](CC2CCCCC2)N(C)C(=O)CN(C)C(=O)CN(C)C1=O [Compound 1529] (cyclo([Ac5c][NMeL][d(β3hA)][NMeL]I[Sar][Sar][NMeCha][Sar][hPhe(3-F,4-CF3)][cisHyp]))
IC50 [1]: 11 nM
IC50 [2]: > 500 nM

CC[C@H](C)[C@@H]1NC(=O)[C@H](CC(C)C)N(C)C(=O)C[C@@H](C(=O)N2CCCCC2)N(C)C(=O)[C@H](C(C)C)N(C)C(=O)C2(CCCC2)NC(=O)[C@H](CC(=O)N2CCC(F)(F)CC2)N(C)C(=O)[C@H](CCc2ccc(Cl)cc2)NC(=O)CN(C)C(=O)[C@H](CC2CCCCC2)N(C)C(=O)CN(C)C(=O)CN(C)C1=O [Compound 177] ([NMeL]I[Sar][Sar][NMeCha][Sar][hPhe(4-Cl)][NMeD](N(CH2CH2)2CF2)[Ac5c][NMeV][NMeD]-Piperidide; lactam N-11)
IC50 [1]: 45 nM
IC50 [2]: > 500 nM

— patent US20240148821A1, “PHARMACEUTICAL USE OF CYCLIC PEPTIDE COMPOUND” (CHUGAI SEIYAKU KABUSHIKI KAISHA, priority 2021, published 2024)
